Data on 14 compounds can be found in patent US20100168102A9, “Amide Derivatives as Kinase Inhibitors” (Devgen NV, priority 2005, published 2010).

In assay [1] the target is T1, PKC epsilon (Homo sapiens, UniProt Q02156).
T1 construct: purchased Invitrogen P2282
T1 sequence (Q02156 1-737): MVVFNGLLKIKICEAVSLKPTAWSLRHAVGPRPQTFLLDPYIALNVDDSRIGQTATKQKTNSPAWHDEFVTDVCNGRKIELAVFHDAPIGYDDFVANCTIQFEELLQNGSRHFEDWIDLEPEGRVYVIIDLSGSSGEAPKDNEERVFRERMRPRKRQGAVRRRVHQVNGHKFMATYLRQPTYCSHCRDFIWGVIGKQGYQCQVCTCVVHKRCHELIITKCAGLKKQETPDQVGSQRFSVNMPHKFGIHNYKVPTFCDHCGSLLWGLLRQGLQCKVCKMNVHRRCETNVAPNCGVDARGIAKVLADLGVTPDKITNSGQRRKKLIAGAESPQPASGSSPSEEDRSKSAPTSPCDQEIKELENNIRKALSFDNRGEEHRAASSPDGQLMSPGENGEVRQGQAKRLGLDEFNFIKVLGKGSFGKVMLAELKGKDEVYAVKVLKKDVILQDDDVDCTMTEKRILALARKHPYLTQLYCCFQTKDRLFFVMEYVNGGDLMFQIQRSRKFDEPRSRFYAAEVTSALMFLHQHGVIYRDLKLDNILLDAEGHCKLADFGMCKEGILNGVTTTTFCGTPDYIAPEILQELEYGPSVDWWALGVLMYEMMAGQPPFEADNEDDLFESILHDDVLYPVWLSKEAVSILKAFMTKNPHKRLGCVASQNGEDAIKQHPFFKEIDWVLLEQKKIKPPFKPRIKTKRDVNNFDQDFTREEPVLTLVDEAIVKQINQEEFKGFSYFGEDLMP
Description: Biochemical assay for PKC epsilon (fluorescence polarization, Protein Kinase C Assay Kit, Red). The note with it: read-out: IC50 μM PKCε. The essentials: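 PKC epsilon at 10 ng/ml final was preincubated 30 min at room temperature with compound in HEPES pH 7.4 with DTT and Triton X-100. ATP/protein substrate was then added in buffer with MgCl2 and CaCl2 for 80 min. The reaction was stopped with EDTA, phosphorylation was detected by fluorescence polarization with rhodamine tracer and anti-phosphoserine antibody, and IC50 values came from curve fits.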
(In fluorescence polarisation assays a small probe gives low polarisation when free and higher when bound to something large.)

Assay [2] concerns the target T2, human ROCKα/ROCKII mix (Homo sapiens, UniProt O75116).
T2 construct: purchased Upstate Biotechnology 14-451
The assay is described as follows: Biochemical assay for ROCK (fluorescence polarization, ROCK IMAP Kit).

Setting [3] is: compounds of Formula XIV, Table 3.
Where [4] appears, read: Table 2, compounds of Formula XIII.

Where two headings read alike, the source gives them in different places.

T2 sequence (O75116 11-552 limits assumed): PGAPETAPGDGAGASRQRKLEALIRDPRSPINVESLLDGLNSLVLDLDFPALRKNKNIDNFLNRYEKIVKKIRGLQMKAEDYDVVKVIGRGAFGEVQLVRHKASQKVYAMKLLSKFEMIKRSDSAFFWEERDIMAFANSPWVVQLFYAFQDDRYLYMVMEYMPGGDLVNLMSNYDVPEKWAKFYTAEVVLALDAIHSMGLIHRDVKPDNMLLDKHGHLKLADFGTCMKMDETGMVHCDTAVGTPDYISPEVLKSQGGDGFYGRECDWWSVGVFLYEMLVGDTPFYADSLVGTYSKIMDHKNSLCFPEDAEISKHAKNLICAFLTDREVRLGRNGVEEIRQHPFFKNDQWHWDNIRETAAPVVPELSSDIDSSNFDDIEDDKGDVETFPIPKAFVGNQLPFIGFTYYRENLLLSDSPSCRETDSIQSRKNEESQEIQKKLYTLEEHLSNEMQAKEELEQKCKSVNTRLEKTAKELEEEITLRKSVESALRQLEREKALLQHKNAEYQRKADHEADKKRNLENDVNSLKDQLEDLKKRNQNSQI

`CC[C@@H](NC(=O)CC(N)c1ccc(C(=O)Nc2ccncc2)cc1)c1ccccc1` (stereo partly drawn) [Compound 216, 4-[1-Amino-2-(1-(R)-phenyl-propylcarbamoyl)-ethyl]-N-pyridin-4-yl-benzamide]: the half-inhibitory concentration (IC50) (in general, the concentration at which inhibition is half-maximal) in assay [1] (setting [3]) lay within 0.5 to 5 µM; in assay [2] (setting [3]), 0.05 to 0.5 µM.
For `NC(CNC(=O)c1cccc2ccccc12)c1ccc(C(=O)Nc2ccncc2)cc1` (stereo not shown) [Compound 71], the IC50 in assay [1] (setting [4]) and in assay [2] (setting [4]) was 0.5 to 5 µM each time.
On to `Cc1ccc(CC(=O)NCC(N)c2ccc(C(=O)Nc3ccncc3)cc2)cc1` (stereo not shown) [Compound 145, 4-{1-Amino-2-[2-(4-methyl-phenyl)-acetylamino]-ethyl}-N-pyridin-4-yl-benzamide], for which the 50% inhibitory concentration (IC50) in assay [1] (setting [4]) was in the range of 0.5 to 5 µM; in assay [2] (setting [4]), 0.05 to 0.5 µM.
In the case of `NC(CNC(=O)c1ccc(F)cc1)c1ccc(C(=O)Nc2ccncc2)cc1` (stereo not shown) [Compound 93, 4-[1-amino-2-(4-fluoro-benzoylamino)-ethyl]-N-pyridin-4-yl-benzamide], the 50% inhibitory concentration (IC50) in assay [1] (setting [4]) and in assay [2] (setting [4]) was 0.5 to 5 µM throughout.
On to `CC(C)(C(=O)NCC(N)c1ccc(C(=O)Nc2ccncc2)cc1)c1ccc(Cl)c(Cl)c1` (stereo not shown) [Compound 380, 4-{1-Amino-2-[2-(3,4-dichloro-phenyl)-2-methyl-propionylamino]-ethyl}-N-pyridin-4-yl-benzamide], for which the IC50 in assay [1] (setting [4]) was less than 0.05 µM; in assay [2] (setting [4]), 0.05 to 0.5 µM.
Consider `NC(c1ccc(C(=O)Nc2ccncc2)cc1)C1CCCN1C(=O)C1CCOc2ccc(F)cc21` (stereo not shown) [Compound 617, 4-{Amino[1-(6-fluoro-chroman-4-carbonyl)-pyrrolidin-2-yl]-methyl}-N-pyridin-4-benzamide], for which the IC50 in assay [1] and in assay [2] was 0.5 to 5 µM in each case.
For the compound `NC(c1ccc(C(=O)Nc2ccncc2)cc1)C1CCCN1C(=O)C1CCCc2sccc21` (stereo not shown) [Compound 621, 4-{Amino-[1-(4,5,6,7-tetrahydro-benzo[b]thiophene-4-carbonyl)-pyrrolidin-2-yl]-methyl}-N-pyridin-4-yl-benzamide], the half-inhibitory concentration (IC50) in assay [1] lay in the range of 0.5 to 5 µM; in assay [2], 0.05 to 0.5 µM.
Regarding “4-(1-Amino-2-{[2-(3-bromo- phenyl)-acetyl]-methyl- amino}-ethyl)- N-pyridin-4-yl-benzamide [Compound 456]”, the figures for the IC50 in assay [1] and in assay [2] were 5 to 50 µM and 0.5 to 5 µM, respectively.
For `Cc1nc(-c2ccccc2)sc1C(=O)NCC(N)c1ccc(C(=O)Nc2ccncc2)cc1` (stereo not shown) [Compound 126, 4-Methyl-2-Phenyl-thiazole-5-carboxylic acid {2-amino-2-[4-(pyridin-4-ylcarbamoyl)-phenyl]-ethyl}-amide], the IC50 in assay [1] (setting [4]) was 5 to 50 µM; in assay [2] (setting [4]), 0.5 to 5 µM.
As for `CN(CC(N)c1ccc(C(=O)Nc2ccncc2)cc1)C(=O)C1(c2ccc(F)cc2)CCC1` (stereo not shown) [Compound 474, 4-(1-Amino-2-{[1-(4-fluoro-phenyl)-cyclobutanecarbonyl]-methyl-amino}-ethyl)-N-pyridin-4-yl-benzamide], the IC50 in assay [1] and in assay [2] was 0.5 to 5 µM in each case.
In the case of `Cc1ccc(CN2CCC(NC(=O)CC(N)c3ccc(C(=O)Nc4ccncc4)cc3)CC2)s1` (stereo not shown) [Compound 202], the half-inhibitory concentration (IC50) in assay [1] (setting [3]) lay within 0.5 to 5 µM; in assay [2] (setting [3]) it was 0.05 to 0.5 µM.
As for `NC(CNC(=O)c1cc2cc(Cl)ccc2o1)c1ccc(C(=O)Nc2ccncc2)cc1` (stereo not shown) [Compound 134, 5-Chloro-benzofuran-2-carboxylic acid {2-amino-2-[4-(pyridin-4-ylcarbamoyl)-phenyl]-ethyl}-amide], the IC50 in assay [1] (setting [4]) was 5 to 50 µM; in assay [2] (setting [4]), 0.5 to 5 µM.
On the same counts, the results for `NC(CNC(=O)c1cccc(F)c1)c1ccc(C(=O)Nc2ccncc2)cc1` (stereo not shown) [Compound 92, 4-[1-amino-2-(3-fluoro-benzoylamino)-ethyl]-N-pyridin-4-yl-benzamide] are 0.5 to 5 µM and 0.5 to 5 µM.
Regarding `NC(CC(=O)NCc1ccc(F)c(C(F)(F)F)c1)c1ccc(C(=O)Nc2ccncc2)cc1` (stereo not shown) [Compound 266, 4-[1-Amino-2-(4-fluoro-3-trifluoromethyl-benzylcarbamoyl)-ethyl]-N-pyridin-4-yl-benzamide], the concentration for half-maximal inhibition (IC50) in assay [1] (setting [3]) was in the range of 0.5 to 5 µM; in assay [2] (setting [3]), 0.05 to 0.5 µM.
